“And” between values parts separate entries of the source, which are not always exact repeats. Equal entries are not always repeated.

One test relates to HeLa cells. The test can be described thus: Annexin V-FITC / propidium iodide flow cytometry (apoptosis or necrosis). The format is cell-based, human. The following applies: 48 h; for necrosis compared to negative control: BV3 at the IC50 concentration; for cell viability compared to negative control: IC50 or 2 × IC50. On the procedure: The analysis was performed using flow cytometry with the Annexin V Apoptosis Detection Kit (eBioscience™, USA) following the manufacturer’s instructions. Initially, HeLa cells were incubated at a concentration of 4 × 10^5 cells/mL and treated with the compounds at their IC50 or 2 × IC50 values obtained at 48 h. β-lap was used as a positive control, and the culture medium as the negative control. After 48 h of treatment, the cells were trypsinized and centrifuged at 1200× g for 5 min. Subsequently, the cells were washed with PBS and centrifuged again. The cells were then resuspended in buffer and incubated with 5 µL of Annexin V-FITC for 10 min. Afterward, the cells were washed with the buffer, centrifuged, resuspended in the buffer, and stained with 10 µL of propidium iodide. The cells were acquired using the Guava EasyCyteHT cytometer (Merck-Millipore, Burlington, MA, USA) with Guava—Soft™ software version 2.7. A total of 5000 events were counted per treatment.

Test [1] has as its system cancer cells (HeLa, HCT-116, HepG2, MDA-MB-231). Nature of the test: MTT cytotoxicity assay, cancer cell panel (range over lines). The following applies: Homo sapiens, 72 h. The format is cell-based. As to the method:
(§1) To assess the cytotoxicity of the compounds, the MTT [3-(4,5-dimethylthiazol-2-yl)-2,5-diphenyltetrazolium bromide] assay was employed. The cells (2 × 10^5/mL) were incubated with the substances at concentrations ranging from 0.78 to 25 µg/mL. β-lap was used as a positive control. After 24, 48, or 72 h of incubation, MTT was added at a concentration of 5 mg/mL. Cell viability in different treatments was compared to the negative control using the following formula: Cell viability%=mean absorbance of treated samples/mean absorbance of negative control×100 The IC50 (the concentration that inhibits 50% of cell growth compared to the negative control) was calculated using nonlinear regression in GraphPad Prism 8.0 for Windows (GraphPad Demo Software, San Diego, CA, USA). Experiments were performed in triplicate and in two independent experiments. The protocol is also described in other previous publications.
Background: Tetrazolium dyes change colour on reduction, which living cells bring about.

In test [2] the test system is HeLa (human cervical adenocarcinoma). Nature of the test: MTT cytotoxicity assay, HeLa. Format: cell-based. The following applies: for IC50: Homo sapiens, HeLa, MTT; for selectivity index (SI): IC50 L929 / IC50 HeLa. As to the method:
as §1, with “publications. The IC50 of normal and cancer cells was used to calculate the SI of compounds BV3 and BV5. The SI indicated the selectivity of the compounds among the normal cell line (L-929) and a cancer cell line (HCT-116, MDA-MB-231, HepG2, or HeLa). SI is a crucial parameter for therapeutic applications in upcoming clinical trials. Therefore, the following formula was used to calculate SI: SI=IC50(normal cell line)/IC50(cancer cell line)” for “publications.”

The test system of test [3] is HCT-116 (human colon carcinoma). The test can be described thus: MTT cytotoxicity assay, HCT-116. The format is cell-based. The following applies: for IC50: Homo sapiens, HCT-116, 72 h, MTT; for selectivity index (SI): IC50 L929 / IC50 HCT-116, 72 h. As to the method: as §1, with “publications. The IC50 of normal and cancer cells was used to calculate the SI of compounds BV3 and BV5. The SI indicated the selectivity of the compounds among the normal cell line (L-929) and a cancer cell line (HCT-116, MDA-MB-231, HepG2, or HeLa). SI is a crucial parameter for therapeutic applications in upcoming clinical trials. Therefore, the following formula was used to calculate SI: SI=IC50(normal cell line)/IC50(cancer cell line)” for “publications.”

Test [4] concerns HepG2 (human hepatocellular carcinoma). The test can be described thus: MTT cytotoxicity assay, HepG2. The format is cell-based. The following applies: for IC50: Homo sapiens, HepG2, 72 h, MTT; for selectivity index (SI): IC50 L929 / IC50 HepG2, 72 h. On the procedure: as §1, with “publications. The IC50 of normal and cancer cells was used to calculate the SI of compounds BV3 and BV5. The SI indicated the selectivity of the compounds among the normal cell line (L-929) and a cancer cell line (HCT-116, MDA-MB-231, HepG2, or HeLa). SI is a crucial parameter for therapeutic applications in upcoming clinical trials. Therefore, the following formula was used to calculate SI: SI=IC50(normal cell line)/IC50(cancer cell line)” for “publications.”

The next test addresses CDK9/CyclinT (Homo sapiens, UniProt P50750). The test can be described thus: ADP-Glo kinase assay. The format is biochemical. The following applies: 10 µM ATP, read-out: % of residual activity; for remaining activity at 1 µM: 1 µM compound; for remaining activity at 10 µM: 10 µM compound. As to the method:
Kinase enzymatic activities of CDK5/p25, CDK9/CyclinT, HASPIN, PIM1, GSK3β, CK1ε, ABL1, and JAK3 were assayed using the luminescent ADP detection assay described in Zegzouti et al. (ADP-GloTM assay kit provided by Promega, Madison, WI, USA). Briefly, the reactions were carried out in appropriate kinase buffer, with either protein or peptide as substrate in the presence of 10 µM ATP. Assay conditions used for each kinase tested here are described in Ibrahim et al.. The Envision (PerkinElmer, Waltham, MA, USA) microplate luminometer was used to measure the transmitted signal expressed in Relative Light Unit (RLU). In order to determine the half maximal inhibitory concentration (IC50), the assays were performed in duplicate in the absence or presence of increasing doses of the tested compounds. Kinase activities are expressed in % of maximal activity, i.e., measured in the absence of inhibitor but with a similar dose of DMSO (solvent of the tested compounds).

CDK9/CyclinT, sequence (P50750 whole entry): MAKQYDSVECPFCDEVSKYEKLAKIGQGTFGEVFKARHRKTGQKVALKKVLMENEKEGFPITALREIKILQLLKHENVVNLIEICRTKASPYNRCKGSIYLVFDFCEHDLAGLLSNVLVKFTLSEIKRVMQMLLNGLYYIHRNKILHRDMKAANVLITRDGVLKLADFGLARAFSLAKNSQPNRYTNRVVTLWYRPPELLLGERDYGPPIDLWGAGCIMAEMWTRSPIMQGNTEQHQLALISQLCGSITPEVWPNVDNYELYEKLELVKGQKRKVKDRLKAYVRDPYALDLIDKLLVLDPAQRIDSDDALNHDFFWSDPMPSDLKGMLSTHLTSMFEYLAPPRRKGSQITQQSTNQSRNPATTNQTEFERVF
CDK9/CyclinT, sequence (O60563 whole entry partner): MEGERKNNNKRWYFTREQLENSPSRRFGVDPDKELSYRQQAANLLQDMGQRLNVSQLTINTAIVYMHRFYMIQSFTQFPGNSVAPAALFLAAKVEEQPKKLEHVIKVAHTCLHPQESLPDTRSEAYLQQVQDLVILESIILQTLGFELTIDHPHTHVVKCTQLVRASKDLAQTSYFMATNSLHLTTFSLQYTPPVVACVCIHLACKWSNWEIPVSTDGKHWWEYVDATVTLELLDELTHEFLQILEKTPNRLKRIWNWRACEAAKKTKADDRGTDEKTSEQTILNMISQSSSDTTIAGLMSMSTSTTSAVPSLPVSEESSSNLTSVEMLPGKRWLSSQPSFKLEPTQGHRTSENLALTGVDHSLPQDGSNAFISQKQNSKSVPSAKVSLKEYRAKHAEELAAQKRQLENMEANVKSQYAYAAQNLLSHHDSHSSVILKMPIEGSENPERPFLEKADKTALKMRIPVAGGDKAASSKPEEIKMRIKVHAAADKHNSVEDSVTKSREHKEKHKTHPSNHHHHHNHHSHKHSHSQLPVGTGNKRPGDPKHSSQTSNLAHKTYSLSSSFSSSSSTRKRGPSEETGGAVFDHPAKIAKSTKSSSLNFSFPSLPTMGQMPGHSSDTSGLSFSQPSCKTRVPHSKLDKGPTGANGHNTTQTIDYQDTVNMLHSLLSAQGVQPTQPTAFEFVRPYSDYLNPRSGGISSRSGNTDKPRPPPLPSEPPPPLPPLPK

As a reminder, the IC50 is the midpoint of a concentration-inhibition curve. Lower therefore signals greater potency. On to `CC1(C)CCC2=C(O1)c1ccccc1/C(=N/NC(=S)Nc1ccc([N+](=O)[O-])cc1)C2=O` [BV3, 2-(2,2-dimethyl-5-oxo-3,4-dihydro-2H-benzo[h]chromen-6(5H)-ylidene)-N-(4nitrophen-yl)thio-carbohydrazide], for which, in the test with HeLa cells, the “necrosis compared to negative control” value is recorded as “increases”. Besides, the “cell viability compared to negative control” value with HeLa cells is reported as “significantly decreased cell viability”. Further, the concentration for half-maximal inhibition (IC50) was 2.81 to 20.6 µM in test [1]; over 57 µM in test [2] (24 h); 23.5 µM in test [2] (48 h); 2.81 µM in test [2] (72 h); 20.6 µM in test [3]; 12.6 µM in test [4]. The entries for the “selectivity index (SI)” value in test [2] (72 h), in test [3] and in test [4] were 15.6, 2.13 and 3.47, respectively. In addition, at CDK9/CyclinT, the remaining activity at 1 µM is at least 100%. Further, the remaining activity at 10 µM at CDK9/CyclinT amounted to 67%.

As for `Cc1ccc(NC(=S)N/N=C2\C(=O)C3=C(OC(C)(C)CC3)c3ccccc32)cc1` [BV5, 2-(2,2-dimethyl-5-oxo-3,4-dihydro-2H-benzo[h]chromen-6(5H)-ylidene)-N-(p-tolyl)-thiocarbohydrazide], in the test with HeLa cells, the “cell viability compared to negative control” value is “significantly decreased cell viability”. Further, the IC50 was 15.5 to 36.9 µM in test [1]; over 61 µM in test [2] (24 h); 24.5 µM in test [2] (48 h); 17.8 µM in test [2] (72 h); 36.9 µM in test [3]; 17.9 µM in test [4]. Further, the remaining activity at 1 µM at CDK9/CyclinT is at least 100%. In addition, on CDK9/CyclinT, the remaining activity at 10 µM was 78%.

With `CC1(C)CCC2=C(O1)c1ccccc1C(=O)C2=O` [β-lap, β-Lapachone], in the test with HeLa cells, the “early apoptosis compared to negative control” value is “significantly increased”. The “necrosis compared to negative control” value with HeLa cells is recorded as “increases”. Moreover, the “cell viability compared to negative control” value in the test with HeLa cells is on record as “reduced the number of viable cells”. Moreover, the IC50 in test [1] is 0.12 to 3.38 µM; in test [2] (24 h), 10.7 µM; in test [2] (48 h), 8.87 µM; in test [2] (72 h), 2.39 µM; in test [3], 0.14 µM; in test [4], 0.12 µM. The “selectivity index (SI)” value in test [2] (72 h) was 1.89 and 1.9; in test [3], 32.4; in test [4], 37.8. Also, the remaining activity at 1 µM at CDK9/CyclinT is at least 100%. Moreover, the remaining activity at 10 µM at CDK9/CyclinT worked out at 72%.
